Values quoted from earlier work, collected in patent US20250281435A1, “CHEWABLE GUMMY CONTAINING BETA-HYDROXY BETA-METHYLBUTYRIC ACID (HMB)” (Concept Matrix Solutions, priority 2024, published 2025).

Details: oral ingestion

time of peak plasma concentration after ingestion: 1 to 2 h
Structure (SMILES): CC(C)(O)CC(=O)O [HMB, 3-hydroxy-3-methylbutanoic acid]
